PMC7614232 (Organic & biomolecular chemistry, 2022)

Experiments:
[1] = biological target: T1, AMAN-2 (Golgi α-mannosidase) (Caenorhabditis elegans, UniProt Q2PJ74); assay: α-mannosidase inhibition assay with pNP-Man, AMAN-2; format: biochemical; settings: for SI^b = IC50(JBMan)/IC50(AMAN-2): selectivity index
T1 sequence (Q2PJ74 27-1145): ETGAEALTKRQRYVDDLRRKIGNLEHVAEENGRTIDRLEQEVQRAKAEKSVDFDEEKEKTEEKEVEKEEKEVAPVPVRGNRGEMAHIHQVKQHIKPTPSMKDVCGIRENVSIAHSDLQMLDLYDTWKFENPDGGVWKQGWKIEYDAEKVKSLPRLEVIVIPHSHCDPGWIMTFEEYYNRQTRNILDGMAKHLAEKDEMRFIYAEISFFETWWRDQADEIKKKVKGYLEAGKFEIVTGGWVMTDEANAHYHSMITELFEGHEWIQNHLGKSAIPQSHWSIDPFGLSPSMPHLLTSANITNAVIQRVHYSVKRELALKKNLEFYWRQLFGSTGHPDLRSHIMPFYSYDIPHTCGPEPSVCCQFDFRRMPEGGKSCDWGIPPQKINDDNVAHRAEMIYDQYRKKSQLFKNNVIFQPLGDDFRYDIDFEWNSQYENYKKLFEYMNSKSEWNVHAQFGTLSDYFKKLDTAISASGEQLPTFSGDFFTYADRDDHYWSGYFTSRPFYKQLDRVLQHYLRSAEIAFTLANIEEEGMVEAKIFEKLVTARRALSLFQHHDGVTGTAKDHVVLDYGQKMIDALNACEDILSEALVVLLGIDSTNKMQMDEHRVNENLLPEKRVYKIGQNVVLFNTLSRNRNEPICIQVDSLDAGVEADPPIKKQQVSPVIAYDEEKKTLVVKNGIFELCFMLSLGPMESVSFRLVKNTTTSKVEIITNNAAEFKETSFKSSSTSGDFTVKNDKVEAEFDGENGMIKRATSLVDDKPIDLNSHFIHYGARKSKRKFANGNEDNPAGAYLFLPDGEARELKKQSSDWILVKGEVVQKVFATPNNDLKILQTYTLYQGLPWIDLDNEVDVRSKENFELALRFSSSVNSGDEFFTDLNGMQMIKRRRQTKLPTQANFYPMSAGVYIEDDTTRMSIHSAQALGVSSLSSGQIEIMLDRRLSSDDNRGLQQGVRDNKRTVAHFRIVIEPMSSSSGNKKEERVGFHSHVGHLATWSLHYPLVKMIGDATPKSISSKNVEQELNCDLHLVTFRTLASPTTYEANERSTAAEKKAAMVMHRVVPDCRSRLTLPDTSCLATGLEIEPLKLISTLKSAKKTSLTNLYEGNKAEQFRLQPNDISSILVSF

[2] = biological target: T2, GMIIb (Golgi α-mannosidase) (Drosophila melanogaster, UniProt Q9VF33); assay: α-mannosidase inhibition assay with pNP-Man, GMIIb; format: biochemical; settings: for SI^a = IC50(LManII)/IC50(GMIIb): selectivity index
T2 sequence (Q9VF33 31-1249): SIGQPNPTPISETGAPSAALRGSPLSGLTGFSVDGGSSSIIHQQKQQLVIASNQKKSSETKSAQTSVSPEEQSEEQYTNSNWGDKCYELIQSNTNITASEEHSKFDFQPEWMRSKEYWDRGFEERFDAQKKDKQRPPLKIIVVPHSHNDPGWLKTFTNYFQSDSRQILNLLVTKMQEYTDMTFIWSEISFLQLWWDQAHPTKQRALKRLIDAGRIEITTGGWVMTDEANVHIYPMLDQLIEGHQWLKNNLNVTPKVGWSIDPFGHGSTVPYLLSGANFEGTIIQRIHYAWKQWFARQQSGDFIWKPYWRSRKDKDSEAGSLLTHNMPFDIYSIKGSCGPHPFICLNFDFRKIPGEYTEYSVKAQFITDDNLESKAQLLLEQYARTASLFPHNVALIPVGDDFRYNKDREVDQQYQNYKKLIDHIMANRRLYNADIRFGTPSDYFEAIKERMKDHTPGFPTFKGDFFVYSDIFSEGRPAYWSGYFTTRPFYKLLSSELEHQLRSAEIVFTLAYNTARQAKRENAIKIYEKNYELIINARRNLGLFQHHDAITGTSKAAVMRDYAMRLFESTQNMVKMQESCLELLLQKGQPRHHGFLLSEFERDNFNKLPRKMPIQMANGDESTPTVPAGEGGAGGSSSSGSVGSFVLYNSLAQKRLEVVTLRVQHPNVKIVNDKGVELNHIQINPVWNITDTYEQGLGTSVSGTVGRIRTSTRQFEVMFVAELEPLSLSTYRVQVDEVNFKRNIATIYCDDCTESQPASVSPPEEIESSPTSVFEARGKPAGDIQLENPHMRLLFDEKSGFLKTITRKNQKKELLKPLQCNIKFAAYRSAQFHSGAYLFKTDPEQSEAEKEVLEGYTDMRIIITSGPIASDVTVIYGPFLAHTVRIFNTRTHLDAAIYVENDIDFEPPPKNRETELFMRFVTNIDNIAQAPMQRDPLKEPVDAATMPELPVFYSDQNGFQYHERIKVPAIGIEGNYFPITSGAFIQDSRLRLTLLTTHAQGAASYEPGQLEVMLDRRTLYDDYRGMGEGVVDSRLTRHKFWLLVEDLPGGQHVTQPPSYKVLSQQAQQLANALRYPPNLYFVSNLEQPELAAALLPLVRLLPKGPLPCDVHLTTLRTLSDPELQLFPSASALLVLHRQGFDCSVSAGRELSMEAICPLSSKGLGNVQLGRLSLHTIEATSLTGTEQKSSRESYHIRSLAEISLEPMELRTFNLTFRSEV

[3] = in aqueous solution; cited from earlier work
[4] = tested on: dGMII (Golgi α-mannosidase II); settings: previous pKa calculations; cited from earlier work

SMILES	SI^b = IC50(JBMan)/IC50(AMAN-2) [1]	SI^a = IC50(LManII)/IC50(GMIIb) [2]	Ki ([1]; read-out: Ki AMAN-2, Dixon plots, pNP-Man 0.5-4 mM, pH 6.0) [nM]	Ki ([2]; read-out: Ki GMIIb, Dixon plots, pNP-Man 0.5-4 mM, pH 6.0) [nM]	pKa [3]	pKa bound in complex with dGMII [4]
Cl.OC[C@H]1NC[C@@H](O)[C@H]1O [Compound 6, 1,4-Dideoxy-1,4-imino-d-lyxitol hydrochloride]	5	8	–	–	–	–
OC[C@@H](O)[C@H]1NC[C@@H](O)[C@H]1O [DIM, 1,4-dideoxy-1,4-imino-D-mannitol, reference compound]	1	13	680	130	–	–
O[C@H]1[C@H]2[C@H](O)CCCN2C[C@H]1O [Swainsonine, (1S,2R,8R,8aR)-trihydroxy-indolizidine]	–	–	–	–	7.5	5.0
